# Reference: the supplement of paper PMC10307832
# Tests used:
# Experiment in all cases: relative viability (nuclei count vs DMSO), 5 days (fraction); higher = more cells survive
# NCI-H522 = test system: NCI-H522
# In short: (§1)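 Each reported value is a median over duplicate plates. It expresses relative viability: treated-well nuclei count divided by vehicle-well nuclei count. Lung cancer cell lines in 1536-well plates were dosed by pin tool a day after seeding, alone with one drug or with a fixed anchor-drug dose plus five library-drug doses (not always all listed) in √10 steps, and nuclei were counted after 5 days.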
# SK-LU-1 = test system: SK-LU-1
# In short: as §1
# A-427 = test system: A-427
# In short: as §1
# NCI-H1395 = test system: NCI-H1395
# In short: as §1
# NCI-H1755 = test system: NCI-H1755
# In short: as §1
# NCI-H23 = test system: NCI-H23
# In short: as §1
# HCC-827 = test system: HCC-827
# In short: as §1
# CAL-12T = test system: CAL-12T
# In short: as §1
# NCI-H1915 = test system: NCI-H1915
# In short: as §1
# NCI-H460 = test system: NCI-H460
# In short: as §1
# LCLC-103H = test system: LCLC-103H
# In short: as §1
# NCI-H2228 = test system: NCI-H2228
# In short: as §1
# SW 1573 = test system: SW 1573
# In short: as §1
# EMC-BAC-2 = test system: EMC-BAC-2
# In short: as §1
# NCI-H2009 = test system: NCI-H2009
# In short: as §1
# NCI-H1792 = test system: NCI-H1792
# In short: as §1
# NCI-H1437 = test system: NCI-H1437
# In short: as §1
# HARA = test system: HARA
# In short: as §1
# COR-L 105 = test system: COR-L 105
# In short: as §1
# NCI-H727 = test system: NCI-H727
# In short: as §1
# HOP-62 = test system: HOP-62
# In short: as §1
# HCC-366 = test system: HCC-366
# In short: as §1
structure (smiles),measurement,setting,value
COc1nc(C)cnc1NS(=O)(=O)c1cccnc1-c1ccc(-c2nnco2)cc1 [Zibotentan] + CC(=O)Nc1cccc(-n2c(=O)n(C3CC3)c(=O)c3c(Nc4ccc(I)cc4F)n(C)c(=O)c(C)c32)c1 [Trametinib] (partner 0.02 µM),relative viability,NCI-H522; first compound 0.08 µM,0.732
same,relative viability,NCI-H522; first compound 0.253 µM,0.667
same,relative viability,NCI-H522; first compound 0.8 µM,0.727
same,relative viability,NCI-H522; first compound 2.53 µM,0.856
same,relative viability,SK-LU-1; first compound 0.08 µM,0.503
same,relative viability,SK-LU-1; first compound 0.253 µM,0.472
same,relative viability,SK-LU-1; first compound 0.8 µM,0.451
same,relative viability,SK-LU-1; first compound 2.53 µM,0.458
same,relative viability,A-427; first compound 0.08 µM,0.813
same,relative viability,A-427; first compound 0.253 µM,0.72
same,relative viability,A-427; first compound 0.8 µM,0.845
same,relative viability,A-427; first compound 2.53 µM,0.83
same,relative viability,NCI-H1395; first compound 0.08 µM,1.05
same,relative viability,NCI-H1395; first compound 0.253 µM,0.947
same,relative viability,NCI-H1395; first compound 0.8 µM,1.07
same,relative viability,NCI-H1395; first compound 2.53 µM,1.07
same,relative viability,NCI-H1755; first compound 0.08 µM,0.737
same,relative viability,NCI-H1755; first compound 0.253 µM,0.745
same,relative viability,NCI-H1755; first compound 0.8 µM,0.797
same,relative viability,NCI-H1755; first compound 2.53 µM,0.792
same,relative viability,NCI-H23; first compound 0.08 µM,0.403
same,relative viability,NCI-H23; first compound 0.253 µM,0.305
same,relative viability,NCI-H23; first compound 0.8 µM,0.349
same,relative viability,NCI-H23; first compound 2.53 µM,0.48
same,relative viability,HCC-827; first compound 0.08 µM,0.503
same,relative viability,HCC-827; first compound 0.253 µM,0.529
same,relative viability,HCC-827; first compound 0.8 µM,0.491
same,relative viability,HCC-827; first compound 2.53 µM,0.548
same,relative viability,CAL-12T; first compound 0.08 µM,0.34
same,relative viability,CAL-12T; first compound 0.253 µM,0.303
same,relative viability,CAL-12T; first compound 0.8 µM,0.349
same,relative viability,CAL-12T; first compound 2.53 µM,0.337
same,relative viability,NCI-H1915; first compound 0.08 µM,0.325
same,relative viability,NCI-H1915; first compound 0.253 µM,0.313
same,relative viability,NCI-H1915; first compound 0.8 µM,0.347
same,relative viability,NCI-H1915; first compound 2.53 µM,0.296
same,relative viability,NCI-H460; first compound 0.08 µM,0.159
same,relative viability,NCI-H460; first compound 0.253 µM,0.0304
same,relative viability,NCI-H460; first compound 0.8 µM,0.0981
same,relative viability,NCI-H460; first compound 2.53 µM,0.196
same,relative viability,LCLC-103H; first compound 0.08 µM,0.685
same,relative viability,LCLC-103H; first compound 0.253 µM,0.704
same,relative viability,LCLC-103H; first compound 0.8 µM,0.68
same,relative viability,LCLC-103H; first compound 2.53 µM,0.737
same,relative viability,NCI-H2228; first compound 0.08 µM,0.398
same,relative viability,NCI-H2228; first compound 0.253 µM,0.62
same,relative viability,NCI-H2228; first compound 0.8 µM,0.572
same,relative viability,NCI-H2228; first compound 2.53 µM,0.49
same,relative viability,SW 1573; first compound 0.08 µM,0.548
same,relative viability,SW 1573; first compound 0.8 µM,0.411
same,relative viability,SW 1573; first compound 2.53 µM,0.729
same,relative viability,EMC-BAC-2; first compound 0.08 µM,0.952
same,relative viability,EMC-BAC-2; first compound 0.8 µM,0.994
same,relative viability,EMC-BAC-2; first compound 2.53 µM,0.914
same,relative viability,NCI-H2009; first compound 0.08 µM,0.273
same,relative viability,NCI-H2009; first compound 0.253 µM,0.258
same,relative viability,NCI-H2009; first compound 0.8 µM,0.266
same,relative viability,NCI-H2009; first compound 2.53 µM,0.278
same,relative viability,NCI-H1792; first compound 0.08 µM,0.546
same,relative viability,NCI-H1792; first compound 0.253 µM,0.479
same,relative viability,NCI-H1792; first compound 0.8 µM,0.389
same,relative viability,NCI-H1792; first compound 2.53 µM,0.537
same,relative viability,NCI-H1437; first compound 0.08 µM,0.533
same,relative viability,NCI-H1437; first compound 0.253 µM,0.541
same,relative viability,NCI-H1437; first compound 0.8 µM,0.455
same,relative viability,NCI-H1437; first compound 2.53 µM,0.496
same,relative viability,HARA; first compound 0.08 µM,0.996
same,relative viability,HARA; first compound 0.8 µM,0.414
same,relative viability,HARA; first compound 2.53 µM,0.764
same,relative viability,COR-L 105; first compound 0.08 µM,0.403
same,relative viability,COR-L 105; first compound 0.253 µM,0.411
same,relative viability,COR-L 105; first compound 0.8 µM,0.482
same,relative viability,COR-L 105; first compound 2.53 µM,0.475
same,relative viability,NCI-H727; first compound 0.08 µM,0.371
same,relative viability,NCI-H727; first compound 0.253 µM,0.415
same,relative viability,NCI-H727; first compound 0.8 µM,0.441
same,relative viability,NCI-H727; first compound 2.53 µM,0.439
same,relative viability,HOP-62; first compound 0.08 µM,0.429
same,relative viability,HOP-62; first compound 0.253 µM,0.367
same,relative viability,HOP-62; first compound 0.8 µM,0.421
same,relative viability,HOP-62; first compound 2.53 µM,0.39
same,relative viability,HCC-366; first compound 0.08 µM,0.378
same,relative viability,HCC-366; first compound 0.253 µM,0.318
same,relative viability,HCC-366; first compound 0.8 µM,0.361
same,relative viability,HCC-366; first compound 2.53 µM,0.383
COc1nc(C)cnc1NS(=O)(=O)c1cccnc1-c1ccc(-c2nnco2)cc1 [Zibotentan] + CC(=O)c1c(C)c2cnc(Nc3ccc(N4CCNCC4)cn3)nc2n(C2CCCC2)c1=O [Palbociclib] (partner 0.5 µM),relative viability,NCI-H522; first compound 0.08 µM,0.981
same,relative viability,NCI-H522; first compound 0.253 µM,0.823
same,relative viability,NCI-H522; first compound 0.8 µM,0.919
same,relative viability,NCI-H522; first compound 2.53 µM,0.855
same,relative viability,SK-LU-1; first compound 0.08 µM,0.416
same,relative viability,SK-LU-1; first compound 0.253 µM,0.389
same,relative viability,SK-LU-1; first compound 0.8 µM,0.367
same,relative viability,SK-LU-1; first compound 2.53 µM,0.367
same,relative viability,A-427; first compound 0.08 µM,0.514
same,relative viability,A-427; first compound 0.253 µM,0.515
same,relative viability,A-427; first compound 0.8 µM,0.519
same,relative viability,A-427; first compound 2.53 µM,0.559
same,relative viability,NCI-H1395; first compound 0.08 µM,0.653
same,relative viability,NCI-H1395; first compound 0.253 µM,0.618
same,relative viability,NCI-H1395; first compound 0.8 µM,0.614
same,relative viability,NCI-H1395; first compound 2.53 µM,0.654
same,relative viability,NCI-H1755; first compound 0.08 µM,0.421
same,relative viability,NCI-H1755; first compound 0.253 µM,0.497
same,relative viability,NCI-H1755; first compound 0.8 µM,0.447
same,relative viability,NCI-H1755; first compound 2.53 µM,0.453
same,relative viability,NCI-H23; first compound 0.08 µM,0.586
same,relative viability,NCI-H23; first compound 0.253 µM,0.496
same,relative viability,NCI-H23; first compound 0.8 µM,0.53
same,relative viability,NCI-H23; first compound 2.53 µM,0.527
same,relative viability,HCC-827; first compound 0.08 µM,0.437
same,relative viability,HCC-827; first compound 0.253 µM,0.49
same,relative viability,HCC-827; first compound 0.8 µM,0.454
same,relative viability,HCC-827; first compound 2.53 µM,0.487
same,relative viability,CAL-12T; first compound 0.08 µM,0.625
same,relative viability,CAL-12T; first compound 0.253 µM,0.365
same,relative viability,CAL-12T; first compound 0.8 µM,0.629
same,relative viability,CAL-12T; first compound 2.53 µM,0.508
same,relative viability,NCI-H1915; first compound 0.08 µM,0.586
same,relative viability,NCI-H1915; first compound 0.253 µM,0.499
same,relative viability,NCI-H1915; first compound 0.8 µM,0.546
same,relative viability,NCI-H1915; first compound 2.53 µM,0.569
same,relative viability,NCI-H460; first compound 0.08 µM,0.157
same,relative viability,NCI-H460; first compound 0.253 µM,0.0391
same,relative viability,NCI-H460; first compound 0.8 µM,0.139
same,relative viability,NCI-H460; first compound 2.53 µM,0.25
same,relative viability,LCLC-103H; first compound 0.08 µM,0.459
same,relative viability,LCLC-103H; first compound 0.253 µM,0.477
same,relative viability,LCLC-103H; first compound 0.8 µM,0.449
same,relative viability,LCLC-103H; first compound 2.53 µM,0.442
same,relative viability,NCI-H2228; first compound 0.08 µM,0.762
same,relative viability,NCI-H2228; first compound 0.253 µM,0.654
same,relative viability,NCI-H2228; first compound 0.8 µM,0.821
same,relative viability,NCI-H2228; first compound 2.53 µM,0.897
same,relative viability,SW 1573; first compound 0.08 µM,0.421
same,relative viability,SW 1573; first compound 0.8 µM,0.385
same,relative viability,SW 1573; first compound 2.53 µM,0.363
same,relative viability,EMC-BAC-2; first compound 0.08 µM,0.532
same,relative viability,EMC-BAC-2; first compound 0.8 µM,0.546
same,relative viability,EMC-BAC-2; first compound 2.53 µM,0.503
same,relative viability,NCI-H2009; first compound 0.08 µM,0.188
same,relative viability,NCI-H2009; first compound 0.253 µM,0.169
same,relative viability,NCI-H2009; first compound 0.8 µM,0.205
same,relative viability,NCI-H2009; first compound 2.53 µM,0.212
same,relative viability,NCI-H1792; first compound 0.08 µM,0.77
same,relative viability,NCI-H1792; first compound 0.253 µM,0.551
same,relative viability,NCI-H1792; first compound 0.8 µM,0.525
same,relative viability,NCI-H1792; first compound 2.53 µM,0.578
same,relative viability,NCI-H1437; first compound 0.08 µM,0.327
same,relative viability,NCI-H1437; first compound 0.253 µM,0.296
same,relative viability,NCI-H1437; first compound 0.8 µM,0.288
same,relative viability,NCI-H1437; first compound 2.53 µM,0.304
same,relative viability,HARA; first compound 0.08 µM,0.297
same,relative viability,HARA; first compound 0.253 µM,0.226
same,relative viability,HARA; first compound 0.8 µM,0.27
same,relative viability,HARA; first compound 2.53 µM,0.258
same,relative viability,COR-L 105; first compound 0.08 µM,0.381
same,relative viability,COR-L 105; first compound 0.253 µM,0.375
same,relative viability,COR-L 105; first compound 0.8 µM,0.373
same,relative viability,COR-L 105; first compound 2.53 µM,0.45
same,relative viability,NCI-H727; first compound 0.08 µM,0.623
same,relative viability,NCI-H727; first compound 0.253 µM,0.667
same,relative viability,NCI-H727; first compound 0.8 µM,0.73
same,relative viability,NCI-H727; first compound 2.53 µM,0.658
same,relative viability,HOP-62; first compound 0.08 µM,0.47
same,relative viability,HOP-62; first compound 0.253 µM,0.431
same,relative viability,HOP-62; first compound 0.8 µM,0.518
same,relative viability,HOP-62; first compound 2.53 µM,0.451
same,relative viability,HCC-366; first compound 0.08 µM,0.387
same,relative viability,HCC-366; first compound 0.253 µM,0.285
same,relative viability,HCC-366; first compound 0.8 µM,0.383
same,relative viability,HCC-366; first compound 2.53 µM,0.4
